Source: ChEMBL document CHEMBL1201862, “PubChem BioAssay data set” (2004)
Values joined by “and” are separate entries in the source; they are usually repeats but may differ in a detail not shown here. Equal values may be shown once. Active and inactive are the calls of the source.

Columns and labels:
[1] = biological target: NAD-dependent protein deacylase sirtuin-5, mitochondrial (Homo sapiens, UniProt Q9NXA8); assay: blockers of sirtuin-5 peptide desuccinylation – biochemical, fluorescence imaging, cherry-pick, set 6, dose response (AID 720597)
[2] = rise of 2N DNA cells, HeLa – IC50, dose response (AID 1117349); type: functional, cell-based
[3] = IC50 of insulin release inhibition, rat insulinoma INS-1E line, 5 mM glucose, cell-based (AID 1117331); type: functional
cells [4] = type: functional, cell-based; details: INS-1E
[5] = rise of 4N DNA cells, HeLa – IC50, dose response (AID 1117351); type: functional, cell-based
Paired box protein Pax-8 = Paired box protein Pax-8 (Homo sapiens, UniProt Q06710); assay: PAX8 transcriptional activity inhibition in RMG-I – RMG-I cells, luciferase, cherry-pick, dose response (AID 687027); type: functional, cell-based;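 note: luciferase reporter driven by Pax8 target thyroperoxidase promoter measured by SteadyGlo luminescence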
[6] = CMV-driven luciferase expression suppression in HEK293 – cell-based, luminescence, dry powder, counter-screen for Pax8 inhibitor project, dose response (AID 743020); type: functional
[7] = general mammalian cell viability loss – inhibitor set, cherry-pick, set 2, cytotoxicity control for miR-122 modulator project, dose response (AID 720697); type: functional, cell-based
[8] = general mammalian cell viability loss – activator set, cherry-pick, cytotoxicity control for miR-122 modulator project, dose response (AID 720690); type: functional, cell-based;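 note: HEK293T human cells scored for general mammalian cytotoxicity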
[9] = biological target: T1, Runt-related transcription factor 1/Core-binding factor subunit beta (Homo sapiens, UniProt Q01196+Q13951); assay: disruptors of Runt domain/CBFb-SMMHC interaction – biochemical, FRET, Cerulean-Runt, Venus-CBFb-SMMHC, uHTS, […] (AID 1434); type: protein assay
[10] = biological target: T1, Runt-related transcription factor 1/Core-binding factor subunit beta; assay: Runt domain/CBFb-SMMHC interaction disruptors – biochemical, TR-FRET (AID 1438); type: protein assay
cells [11] = details: A549
cells [12] = details: HEK293;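 note: cells exposed to compound for 48 hours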
[13] = Late stage assay provider results from the probe development effort to identify inhibitors of the Plasmodium falciparum M18 Aspartyl Aminopeptidase (M18AAP): radiolabel-based cell-based dose response assay to identify compounds that inhibit P. falciparum growth in RBCs, Set 2..; type: functional
[14] = TB: CFU replicating Measured in Microorganism System Using Imaging - 7108-05_Inhibitor_Dose_DryPowder_Activity_Set2.; type: functional
cells [15] = assay: cells
[16] = A2780 cell killing – plate reader, dry powder samples, cytotoxicity control, dose response (AID 743046); type: functional, cell-based
[17] = OVCAR-3 cell viability loss – plate reader, dry powder samples, PAX8 inhibitor project, dose response (AID 743044); type: functional, cell-based
[18] = biological target: Protein disulfide-isomerase (Homo sapiens, UniProt P07237); assay: inhibition of PDI-mediated insulin reduction – biochemical, turbidity, dry powder samples, set 2, confirmation (AID 652146)
[19] = Single fluorophore orthopox expression reporter, late gene expression Measured in Cell-Based and Microorganism Combination System Using Plate Reader - 2142-08_Inhibitor_Dose_DryPowder_Activity.; type: functional
[20] = lung carcinoma cell viability loss – CellTiter-Glo luminescence, dry powder, set 17, dose response (AID 1117284); type: functional, cell-based; details: A549
[21] = inhibitors of orthopox intermediate gene expression, dose response, cell-based, single fluorophore reporter, dry powder (AID 1117271); type: functional
[22] = Orthopox viral replication plaque formation Measured in Cell-Based and Microorganism Combination System Using Imaging - 2142-05_Inhibitor_Dose_DryPowder_Activity.; type: functional
[23] = toxicity to A549 lung cells – cell-based, plate reader, dry powder, set 6, cytotoxicity control, dose response (AID 743312); type: functional
cells [24] = details: HEK293; remark: listed apart in the source;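 note: cells exposed to compound for 48 hours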
[25] = biological target: T2, Disintegrin and metalloproteinase domain-containing protein 17 (Homo sapiens, UniProt P78536); assay: exosite inhibitors of ADAM17, dose response, biochemical (AID 743260)
[26] = inhibition of ADAM10 peptide cleavage – biochemical, FRET peptide substrate, recombinant human ADAM10, selectivity assay for ADAM17 exosite inhibitor project, dose response (AID 743259);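 note: ADAM10 enzyme cleaving a FRET peptide substrate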
[27] = biological target: Metabotropic glutamate receptor 3 (Rattus norvegicus, UniProt P31422); assay: inhibitors of rat mGlu3 Galpha15 signaling – TREx293 cells, calcium flux, mGlu3 NAM project, dose response (AID 651840); type: functional
[28] = inhibitors acting on PAX2 in cells – cell-based, plate reader, dry powder samples, selectivity assay for PAX8 inhibitor project, dose response (AID 743048); type: functional;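 note: HEK293 cells carrying a WT1 promoter luciferase reporter driven by expressed Pax2; potency is for inhibition of Pax2 driven reporter signal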
[29] = COV362 cell viability loss – plate reader, dry powder, SA12, cytotoxicity control for PAX8 inhibitor project, dose response (AID 743144); type: functional, cell-based
[30] = PAX5 cellular inhibition readout – cell-based, plate reader, dry powder samples, selectivity assay for PAX8 inhibitor project, dose response (AID 743047); type: functional;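 note: HEK293 cells carrying a Pax5 driven CD19 promoter luciferase reporter; potency of inhibitors that lower reporter luminescence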
[31] = IGROV1 cell killing – plate reader, dry powder samples, PAX8 inhibitor project, dose response (AID 743043); type: functional, cell-based; details: IGROV-1
[32] = COV434 cell viability loss – plate reader, dry powder, SA7, cytotoxicity control for PAX8 inhibitor project, dose response (AID 743145); type: functional, cell-based
[33] = OVCAR8 cell viability loss – plate reader, dry powder samples, PAX8 project, dose response (AID 743197); type: functional, cell-based; details: OVCAR-8
[34] = PAX8-dependent cell viability loss – plate reader, dry powder, dose response (AID 743049); type: functional, cell-based
[35] = potency of ADAM10 substrate cleavage blockers – biochemical, QFRET, dose response (AID 743254);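 note: ADAM10 enzyme with the DM2 quenched FRET peptide as substrate; EDANS fluorescence gain as the protease cuts the substrate; inhibitor potency against ADAM10 proteolytic activity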
[36] = biological target: T2, Disintegrin and metalloproteinase domain-containing protein 17; assay: inhibition of ADAM17 substrate cleavage – biochemical, quenched FRET substrate, counter-screen for ADAM10 exosite inhibitor project, dose response (AID 743253)
[37] = Luminescence Cell-Based Dose Retest to Confirm Inhibitors of Cancer Stem Cells. [Related pubchem assays (depositor defined):AID2717, AID2721]; type: functional; details: Homo sapiens
[38] = HEK-293T cell viability reduction – luminescence, B-cell screen hits, cytotoxicity control for BCR NF-kB inhibitor project, dose response (AID 489021); type: functional, cell-based;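 note: HEK-293T cells carrying an NF-kB luciferase reporter; cells exposed to compound for about 14 hours before viability readout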
INS1 = assay: INS-1E survival protection against cytokine death – cell-based, luminescence, retest, dose response (AID 449756); type: functional;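 note: cell death triggered by IL-1 beta plus TNF-alpha plus IFN-gamma mixture; protective hits raise ATP signal compared with cytokine alone wells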
[39] = reduction of Shn3 3'UTR-driven luciferase in osteoblasts – cell-based, Clone20 osteoblasts, firefly luciferase, cherry-picked, dose response (AID 624132); type: functional;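 note: firefly luciferase luminescence from reporter carrying the Shn3 3'UTR in osteoblasts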
[40] = non-specific 3'UTR reporter inhibition in Clone20-Shn3RL – cell-based, Renilla luciferase, cherry-picked, counter-screen for Shn3 inhibitor project, dose response (AID 624133); type: functional
cells [41] = type: functional, cell-based
[42] = biological target: Nuclear receptor subfamily 0 group B member 1 (Homo sapiens, UniProt P51843); type: functional, cell-based;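 note: HEK293T cells transfected with SF-1 and DAX-1 plus StAR promoter luciferase reporter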
Major prion protein = Major prion protein (Homo sapiens, UniProt P04156); type: functional, cell-based
cells [43] = assay: cells; remark: listed apart in the source
HEK293 = assay: viability loss in HEK293T cells – cell-based, ATP luminescence, cherry-pick samples, cytotoxicity control, dose response (AID 687005); type: functional; details: Homo sapiens;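 note: cells exposed to compound for 48 hours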
[44] = HEK293 Cytotoxicity Assay Measured in Cell-Based System Using Plate Reader - 7071-01_Inhibitor_Dose_CherryPick_Activity_Set2.; type: functional
P388/ADR = assay: cells; type: functional; details: Mus musculus
P388 = assay: cells; type: functional; details: Mus musculus
[45] = CellTiter-Glo luminescence survival assay, SW480 colon tumor line, concentration-response curve, half-maximal inhibitory concentration (AID 1117338); type: functional
[46] = RKO cell viability reduction, dose response, CellTiter-Glo luminescence (AID 1117322); type: functional
[47] = cytotoxicity toward HCT116 cells – cell-based, CellTiter-Glo luminescence, IC50, dose response (AID 1117332); type: functional; details: HCT-116
[48] = SNU-C1 cell viability reduction, dose response, CellTiter-Glo luminescence (AID 1117323); type: functional, cell-based
[49] = cytotoxicity toward Colo320 cells – cell-based, CellTiter-Glo luminescence, IC50, dose response (AID 1117334); type: functional; details: COLO 320
[50] = cytotoxicity toward HT-29 cells – cell-based, CellTiter-Glo luminescence, IC50, dose response (AID 1117330); type: functional
[51] = Reduced DLD-1 viability, concentration-response, CellTiter-Glo luminescence (AID 1117352); type: functional
[52] = HCT116 cell viability decrease, GSK3B pretreatment – CellTiter-Glo, IC50, dose response (AID 1117339); type: functional; details: HCT-116

With `CCC(=O)N1C[C@@H](C)[C@@H](OC)CN(C)C(=O)c2cc(NC(=O)CC(F)(F)F)ccc2OC[C@@H]1C` the AC50 [1] was 4 µM (active).

For `Nc1ccc2cc3ccc(N)cc3nc2c1` [PROFLAVINE HEMISULFATE], the IC50 [2] was > 10 µM (inactive), the IC50 [3] was 20.6 µM (inactive) and the IC50 (cells [4]) was > 33.3 µM (inactive). For the same molecule, the IC50 [5] was > 10 µM (inactive).

For `C[C@H](CO)N1C[C@H](C)[C@@H](CN(C)C(=O)c2ccc3c(c2)OCO3)Oc2cc(C#Cc3ccccc3F)ccc2S1(=O)=O`, the AC50 (Paired box protein Pax-8) was 6.89 µM (active), the AC50 [6] was 62.6 µM (active) and the AC50 [7] was 9.58 µM (active). For the same molecule, the AC50 [8] was 17.7 µM (active).

In the case of `O=c1[nH]c(=O)c2nc(-c3ccc(Cl)cc3)cnc2[nH]1`, the IC50 [9] is reported as 0.643 µM (active), the IC50 [10] is reported as > 100 µM (inactive) and the AC50 (cells [11]) is reported as > 52 µM (inactive). The AC50 (cells [12]) was > 52 µM (inactive).

In the case of `Oc1ccc(CCNc2c3ccccc3nc3ccccc23)cc1`, the IC50 [13] is reported as 0.7 µM (active).

`Cn1c(NC(=O)c2ccccc2F)nc2ccccc21` showed an AbsAC90 [14] of 128.74 µM.

For `CCN(CC)c1ccc2cc(C(N)=O)c(=O)oc2c1`, the AC50 (cells [15]) was 0.573 µM (active).

In the case of `CC(C)(C)[S+]([O-])N1Cc2cc(C(=O)NCCCN3CCOCC3)nc(-c3cccc(C#CCC4CCCC4)c3)c2[C@@H]1CCO` (some centres not stated), the AC50 (Paired box protein Pax-8) is reported as 24 µM (active), the AC50 [16] is reported as 4.02 µM (active) and the AC50 [17] is reported as 40.4 µM (active).

In the case of `CCOC(=O)C1(Cc2ccccc2)CCN(Cc2ccc(O)c(Cl)c2)CC1`, the AC50 [18] is reported as > 30 µM (inactive).

In the case of `C[C@@H](O)C#Cc1ccc2c(c1)O[C@@H](CN(C)Cc1ccc(-c3ccccc3Cl)cc1)[C@@H](C)CN([C@@H](C)CO)S2(=O)=O`, the AC50 [19] is reported as 1.18 µM (active), the AC50 [20] is reported as > 52 µM (inactive) and the AC50 [21] is reported as 1.43 µM (active). For the same molecule, the AC50 [22] was 0.601 µM (active).

With `CC(C)c1ccccc1NCCn1c(=S)[nH]c2ccccc21` the AC50 [23] was 21.1 µM (active) and the AC50 (cells [24]) was 27.5 µM (active).

For `O=C(NCC(c1ccc(F)cc1)N1CCOCC1)c1ccc(Br)o1` (configuration not stated), the IC50 [25] was > 69.5 µM (inactive) and the IC50 [26] was > 69.5 µM (inactive).

With `CCCCC1(O)CCCN(C(=O)c2ccc(C#Cc3ccc(OC)cc3)cc2)C1` (configuration not stated) the IC50 [27] was 2.92 µM.

For `N#C[C@@H]1[C@@H](c2ccc(C#Cc3ccccc3F)cc2)[C@H](CO)N1C(=O)C1CCCCC1`, the AC50 (Paired box protein Pax-8) was 9.74 µM (active), the AC50 [28] was 53.3 µM (active) and the AC50 [29] was 32.4 µM (active). For the same molecule, the AC50 [30] was 25.8 µM (active), the AC50 [31] was 33.4 µM (active) and the AC50 [32] was 25 µM (active). For the same molecule, the AC50 [33] was 37.5 µM (active) and the AC50 [34] was 28.6 µM (active).

With `O=C(NC(Cc1c[nH]c2ccccc12)C(=O)Nc1ccc(OC(F)(F)F)cc1)c1cccs1` (configuration not stated) the IC50 [35] was 11 µM (inactive) and the IC50 [36] was > 69.5 µM (inactive).

For `C[C@H]1CCC/C=C/[C@@H]2C[C@H](O)C[C@H]2[C@H](O)/C=C/C(=O)O1` [BREFELDIN A], the AC50 [37] was < 0.16 µM (active), the IC50 [38] was > 80 µM (inactive) and the AC50 (INS1; Rattus norvegicus, INS1) was 1.03 µM (active). For the same molecule, the AC50 (INS1; ins1) was 1.06 µM (active), the AC50 [39] was 3.15 µM (active) and 2.2 µM (active) and the AC50 [40] was 10.3 µM (active). The IC50 (cells [41]) was > 67.6 µM (inactive), the IC50 [42] was 0.134 µM (active) and the AC50 (Paired box protein Pax-8) was < 0.26 µM (active). The IC50 (Major prion protein) was 3.5 µM (active) and the IC50 (cells [43]) was > 138 µM (inactive).

For `COC(=O)C1=C(C)N(Cc2ccc(Cl)cc2)C(=S)NC1c1cccc(F)c1` (configuration not stated), the AC50 (HEK293) was 21.4 µM (active) and the AC50 [44] was 21.4 µM (active).

For `CCCCCCCCCCCCCCCCOP(=O)([O-])OCC[N+](C)(C)C` [MILTEFOSINE], the GI50 (P388/ADR) was 35.4 µM (inactive), the GI50 (P388) was 21.2 µM (inactive) and the IC50 [45] was 0.478 µM (active). For the same molecule, the IC50 [46] was 0.437 µM (active), the IC50 [47] was 3.39 µM (active) and the IC50 [48] was 0.965 µM (active). The IC50 [49] was 1.49 µM (active), the IC50 [50] was 1.96 µM (active) and the IC50 [51] was 1.23 µM (active). The IC50 [52] was 1.48 µM (active).
